What is called melting point is the temperature, or range, at which the solid turns liquid. The molecule `CSc1cc(F)c(-c2c(Cl)nc3ncnn3c2NCC(F)(F)F)cc1F` [I-8] showed a melting point of 161 °C.

Regarding `N#Cc1ccc(-c2c(Cl)nc3ncnn3c2NC2CCCC2)cc1` [I-3], the melting point amounted to 207 °C.

These data come from patent US7148227B2, “Fungicidal triazolopyrimidines, methods for producing the same, use thereof for combating harmful fungi and agents containing said substances” (BASF Aktiengesellschaft, priority 2002, dated 2006).
